Assay results from ChEMBL document CHEMBL4619799, “Mechanistic Insight into Antiretroviral Potency of 2'-Deoxy-2'-β-fluoro-4'-azidocytidine (FNC) with a Long-Lasting Effect on HIV-1 Prevention” (J Med Chem, 2020).
The source made the active and inactive calls. No cut-off for these calls is given here.

Columns and labels:
[1] = Tmax in Sprague-Dawley rat thymus at 0.5 mg/kg, po administered as single dose via gavage by LC-MS/MS analysis; type: ADME, organism-based
[2] = Cmax in monkey plasma at 6 mg/kg, po administered as single dose measured after 24 hrs by LC-MS/MS analysis; type: ADME, organism-based, Macaca mulatta; set-up: dose 6 mg/kg, route oral; details: rhesus monkey
[3] = Effect on CD69 surface expression in IL2-induced human PBMC-derived CD14-positive monocytes at 100 nM measured after 48 hrs by immunostaining based flow cytometry; type: ADME; details: 0.1 µM
[4] = Cmax in monkey plasma at 1 mg/kg, po administered as single dose by LC-MS/MS analysis; type: ADME, organism-based, Macaca mulatta; set-up: dose 1 mg/kg, route oral; details: rhesus monkey
[5] = Effect on HLA-DR surface expression in IL2-induced human PBMC-derived CD4-positive T cells at 100 nM measured after 48 hrs by immunostaining based flow cytometry; type: ADME; details: 0.1 µM
[6] = Binding affinity to HIV1 Vif and CBFbeta-ELOB-ELOC complex (unknown origin) assessed as compound-complex adduct formation measured after 150 secs by CM5 chip based assay
[7] = system: Human immunodeficiency virus 1; experiment: Antiviral activity against VSVG pseudotyped HIV1 infected in HEK293 cells preincubated for 3 hrs followed by compound washout and subsequent compound redosing and measured after 72 hrs by luciferase reporter gene based assay; type: functional, organism-based; details: Human immunodeficiency virus 1, HEK293
[8] = system: Human immunodeficiency virus 1; experiment: (§1) Antiviral activity against JRFL pseudotyped HIV1 infected in human Hut/CCR5 cells assessed as time needed to reach 50% reduction of virus infection at 0.1 nM incubated with cells for 4 hrs prior to compound washout followed by viral infection and measured after 72 hrs by luciferase reporter gene assay; type: functional
[9] = Effect on HLA-DR surface expression in IL2-induced human PBMC-derived CD14-positive monocytes at 100 nM measured after 48 hrs by immunostaining based flow cytometry; type: ADME; details: 0.1 µM
[10] = Drug metabolism in human PBMC-derived CD14-positive monocytes assessed as FNC-TP formation at 350 nM measured after 4 hrs by LC-MS/MS analysis; type: ADME; details: 0.35 µM
[11] = system: Human immunodeficiency virus 1; experiment: Potency index, ratio of lamivudine EC50 to test compound EC50 for antiviral activity against VSVG pseudotyped HIV1 infected in HEK293 cells; type: functional
[12] = system: Human immunodeficiency virus 1; experiment: Antiviral activity against JRFL pseudotyped HIV1 infected in human Hut/CCR5 cells preincubated for 3 hrs followed by compound washout and subsequent compound redosing and measured after 72 hrs by luciferase reporter gene based assay; type: functional, organism-based; details: Human immunodeficiency virus 1, Hut/CCR5
[13] = Cytotoxicity against human Hut/CCR5 cells assessed as reduction in cell viability at 0.1 to 10 nM measured after 120 hrs by MTT assay; type: cell-based; details: 0.01 µM
[14] = AUC (0 to 24 hrs) in monkey PBMC assessed as FNC-TP level at 6 mg/kg, po administered as single dose by LC-MS/MS analysis; type: ADME, organism-based, Macaca mulatta; set-up: dose 6 mg/kg, time < 24 hr, route oral; details: rhesus monkey, in vivo
[15] = Tmax in monkey PBMC assessed as FNC-TP level at 1 mg/kg, po administered as single dose by LC-MS/MS analysis; type: ADME, organism-based, Macaca mulatta; details: rhesus monkey, in vivo
[16] = Drug metabolism in human PBMC-derived CD4-positive T cells assessed as FNC-TP formation at 350 nM measured after 4 hrs by LC-MS/MS analysis; type: ADME; details: 0.35 µM
[17] = Effect on CD25 surface expression in IL2-induced human PBMC-derived CD14-positive monocytes at 100 nM measured after 48 hrs by immunostaining based flow cytometry; type: ADME; details: 0.1 µM
[18] = Effect on CD25 surface expression in IL2-induced human PBMC-derived CD4-positive T cells at 100 nM measured after 48 hrs by immunostaining based flow cytometry; type: ADME; details: 0.1 µM
[19] = Elimination half life in monkey PBMC assessed as FNC-TP level at 1 mg/kg, po administered as single dose by LC-MS/MS analysis; type: ADME, organism-based, Macaca mulatta; details: rhesus monkey, in vivo
[20] = system: Human immunodeficiency virus 1; experiment: Synergistic antiviral activity against JRFL pseudotyped HIV1 infected in human Hut/CCR5 cells assessed as combination index in presence of dolutegravir by luciferase reporter gene based assay; type: functional
[21] = Selectivity index, ratio of CC50 for human Hut/CCR5 cells to EC50 for antiviral activity against JRFL pseudotyped HIV1 infected in human Hut/CCR5 cells; type: toxicity, cell-based; details: read-out: Ratio CC50/EC50
[22] = system: Human immunodeficiency virus 1; experiment: Antiviral activity against HIV1 infected patient assessed as reduction in plasma viremia at 4 mg administered daily for 7 days measured 24 hrs post-last dose by qRT-PCR analysis; type: functional, organism-based
[23] = system: Human immunodeficiency virus 1; experiment: Antiviral activity against JRFL pseudotyped HIV1 infected in human Hut/CCR5 cells assessed as time needed to reach 50% reduction of virus infection at 1 nM incubated with cells for 4 hrs prior to compound washout followed by viral infection and measured after 72 hrs by luciferase reporter gene assay; type: functional
[24] = AUC (0 to 24 hrs) in monkey plasma at 1 mg/kg, po administered as single dose by LC-MS/MS analysis; type: ADME, organism-based, Macaca mulatta; set-up: time < 24 hr, dose 1 mg/kg, route oral; details: rhesus monkey
[25] = AUC (0 to 24 hrs) in monkey PBMC assessed as FNC-TP level at 1 mg/kg, po administered as single dose by LC-MS/MS analysis; type: ADME, organism-based, Macaca mulatta; set-up: time < 24 hr, dose 1 mg/kg, route oral; details: rhesus monkey, in vivo
[26] = Cmax in monkey plasma at 6 mg/kg, po administered as single dose by LC-MS/MS analysis; type: ADME, organism-based, Macaca mulatta; set-up: dose 6 mg/kg, route oral; details: rhesus monkey
[27] = Elimination half life in monkey PBMC assessed as FNC-TP level at 6 mg/kg, po administered as single dose by LC-MS/MS analysis; type: ADME, organism-based, Macaca mulatta; details: rhesus monkey, in vivo
[28] = Tmax in monkey plasma at 6 mg/kg, po administered as single dose by LC-MS/MS analysis; type: ADME, organism-based, Macaca mulatta; details: rhesus monkey
[29] = Ratio of Cmax in monkey plasma at 6 mg/kg, po administered as single dose measured after 1 hr to Cmax in monkey plasma at 6 mg/kg, po administered as single dose measured after 24 hrs; type: ADME, organism-based, Macaca mulatta; details: rhesus monkey, in vivo
[30] = target: Virion infectivity factor (Human immunodeficiency virus type 1 group M subtype B (isolate NY5)(HIV-1)) (UniProt P12504); experiment: Inhibition of HIV1 HA-tagged Vif expressed in HEK293T cells co-expressing eGFP-tagged pcDNA-APOBEC3G assessed as reduction in Vif-mediated A3G degradation at 10 nM measured after 48 hrs by flow cytometry; type: cell-based; details: Human immunodeficiency virus 1, HEK-293T
[31] = system: Human immunodeficiency virus 1; experiment: Synergistic antiviral activity against JRFL pseudotyped HIV1 infected in human Hut/CCR5 cells assessed as combination index in presence of rilpivirine by luciferase reporter gene based assay; type: functional
[32] = Cmax in monkey PBMC assessed as FNC-TP level at 1 mg/kg, po administered as single dose by LC-MS/MS analysis; type: ADME, organism-based, Macaca mulatta; set-up: dose 1 mg/kg, route oral; details: rhesus monkey, in vivo
[33] = Binding affinity to HIV1 Vif and CBFbeta-ELOB-ELOC complex (unknown origin) by CM5 chip based assay
[34] = system: Human immunodeficiency virus 1; experiment: as §1, with “10” for “0.1”; type: functional
[35] = system: Human immunodeficiency virus 1; experiment: Antiviral activity against HIV1 infected patient assessed as […] in CD4-positive T cell count at 4 mg administered daily for 7 days measured 24 hrs post-last dose by immunostaining based flow cytometry analysis; type: functional, organism-based

Chain of Virion infectivity factor (Human immunodeficiency virus type 1 group M subtype B (isolate NY5)(HIV-1)) (P12504 whole entry): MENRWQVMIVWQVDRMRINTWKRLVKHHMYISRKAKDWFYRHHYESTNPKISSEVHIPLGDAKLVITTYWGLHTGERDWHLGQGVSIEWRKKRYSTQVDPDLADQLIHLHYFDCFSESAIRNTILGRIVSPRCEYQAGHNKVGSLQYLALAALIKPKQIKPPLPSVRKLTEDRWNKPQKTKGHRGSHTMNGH

[N-]=[N+]=N[C@]1(CO)O[C@@H](n2ccc(N)nc2=O)[C@@H](F)[C@@H]1O [RO-0622]
Tmax [1]: 7 to 12 h
Cmax [2]: 6.5 nM
Activity [3]: Non-Toxic
Cmax [4]: 196 nM
Activity [5]: Non-Toxic
Activity [6]: 36%
EC50 [7]: 0.063 nM
Time [8]: 68.6 to 68.63 h
Activity [9]: Non-Toxic
Drug metabolism [10]: Metabolite_Detected
Ratio EC50 [11]: 4700
EC50 [12]: 0.0136 nM
Activity [13]: Non-Toxic
AUC [14]: 0.24922 µM·h
Tmax [15]: 6 h
Drug metabolism [16]: Metabolite_Detected
Activity [17]: Non-Toxic
Activity [18]: Non-Toxic
beta t1/2 [19]: 133.15 h
CI50 [20]: 0.01704
CI75 [20]: 0.01929
CI90 [20]: 0.02209
CI95 [20]: 0.0244
selectivity ratio [21]: 25000
Activity [22]: Active
Time [23]: 83.14 h
AUC(0-t) at 24 h [24]: 0.499 µM·h
AUC [25]: 0.09933 µM·h
Cmax [26]: 2070 nM
beta t1/2 [27]: 112.4 h
Tmax [28]: 1 h
Ratio [29]: 320
inhibition [30]: Active
CI50 [31]: 0.113
CI75 [31]: 0.0902
CI90 [31]: 0.07208
CI95 [31]: 0.06194
Cmax [32]: 2.1 nM
Kd [33]: 87 nM
Time [34]: 123.06 to 123.1 h
Activity [35]: inactive
